Test results from patent US9044424B2, “Methods of regulating glucose metabolism, and reagents related thereto” (Trustees of Tufts College, priority 1998, dated 2015).
Like-named read-outs stand apart in the source and are kept apart here. Each block holds one compound with its values, some of them ahead of it.

Tests used:
DP-IV = DP-IV (Homo sapiens, UniProt P27487); assay: DP-IV inhibition / affinity
Method: As an illustrative embodiment, the ability of a test agent to inhibit DPIV can be assessed using a colorimetric or fluorometric substrate, such as Ala-Pro-paranitroanilide.
An illustrative reaction mixture includes 50 μM sodium Hepes (pH7.8), 10 μM Ala-Pro-paranitroanilide, 6 milliunits of DPIV, and 2% (v/v) dimethylformamide in a total volume of 1.0 mL. The reaction is initiated by addition of enzyme, and formation of reaction product (paranitroanilide) in the presence and absence of a test compound can be detected photometrically, e.g., at 410 nm.

mice = assay: Oral glucose tolerance test in mice; type: in vivo; settings: for glucose levels in blood / glucose control: single injection alone, one hour prior to oral glucose challenge, FIG. 3; for response to a sub-therapeutic dose of GLP-1: single injection, with 8 μg GLP-1
Method: The first two experiments are “acute” experiments wherein the mice were injected with a single dose of Pro-boro-pro. In the first set of experiments mice were injected with 150 μg of Pro-boro-pro (PBP-1) and then subjected to an oral glucose tolerance test within an hour. […] In a second set of experiments mice were injected with Pro-boro-pro (PBP-2) one hour prior to an oral glucose challenge test. FIG. 3 presents the results of these experiments. Each set of experiments was also performed using saline as a control.
The third set of experiments were “chronic” experiments, wherein the mice were injected twice daily with Pro-boro-pro for four days, followed by an oral glucose challenge.

[1] = cited from earlier work
[2] = chronic (>5 days) treatment alone

Sequence of DP-IV (P27487 whole entry): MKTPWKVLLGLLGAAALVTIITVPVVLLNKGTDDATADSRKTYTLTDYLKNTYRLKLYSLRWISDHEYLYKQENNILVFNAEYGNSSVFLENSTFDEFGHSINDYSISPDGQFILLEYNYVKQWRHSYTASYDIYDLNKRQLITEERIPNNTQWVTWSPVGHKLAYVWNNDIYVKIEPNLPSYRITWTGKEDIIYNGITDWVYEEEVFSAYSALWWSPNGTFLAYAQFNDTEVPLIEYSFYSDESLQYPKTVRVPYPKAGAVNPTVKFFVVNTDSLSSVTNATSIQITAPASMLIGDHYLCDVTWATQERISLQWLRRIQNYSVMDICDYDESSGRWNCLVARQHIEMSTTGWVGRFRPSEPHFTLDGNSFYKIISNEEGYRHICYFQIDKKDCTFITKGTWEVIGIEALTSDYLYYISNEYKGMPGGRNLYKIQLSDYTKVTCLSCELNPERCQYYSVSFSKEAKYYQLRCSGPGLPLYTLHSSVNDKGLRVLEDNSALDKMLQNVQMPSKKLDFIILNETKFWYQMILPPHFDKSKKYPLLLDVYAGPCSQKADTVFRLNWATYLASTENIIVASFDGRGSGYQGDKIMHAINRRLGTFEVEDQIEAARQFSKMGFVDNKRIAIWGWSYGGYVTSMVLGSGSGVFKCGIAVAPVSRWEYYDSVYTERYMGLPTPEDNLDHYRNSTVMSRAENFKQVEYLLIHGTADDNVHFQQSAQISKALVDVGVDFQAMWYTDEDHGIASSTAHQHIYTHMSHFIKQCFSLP

- affinity for DP-IV (DP-IV): no affinity
Compound: CC(NC(=O)OC(C)(C)C)C(=O)N1CCCC1B(O)O (stereo not drawn) [Boc-blocked Ala-boroPro, Boc-Ala-boroPro]

Compound: O=C(C1CCCN1)N1CCCC1B(O)O (stereo not shown) [Pro-boro-pro]
- fasting blood sugars (mice; [2]): lowers
- glycemic excursion to oral glucose challenge (mice; [2]): lowers
- blood sugar levels (mice; chronic: injected twice daily for four days, then oral glucose challenge, FIG. 4): lowering of the blood sugar levels
- blood sugar (mice; oral glucose challenge in mice, overall statement): clearly lowers blood sugar
- glucose levels in blood (glucose tolerance curve) (mice; single injection 150 μg, oral glucose tolerance test within an hour, 8 μg GLP-1 five minutes prior to glucose, FIG. 2): improves glucose levels in blood
- glucose levels in blood / glucose control (mice): alone sufficient to improve glucose control
- glucose levels in blood / glucose control (mice; listed as PBP-2): improves glucose levels in blood
- response to a sub-therapeutic dose of GLP-1 (mice; FIG. 2): potentiate the response to a subtherapeutic dose of GLP-1
- response to a sub-therapeutic dose of GLP-1 (mice; FIG. 2, listed as PBP-1): potentiates the response to a sub-therapeutic dose of GLP-1

Compound: L-Ala-L-boroPro-pinacol
- extent of DP-IV inhibition (DP-IV; silica gel fractions compared at equal concentrations): inhibits DP-IV to a greater extent than later fractions

Compound: glucagon-like peptide-1 [GLP-1]
- metabolite share of the increase in plasma immunoreactivity (COOH-terminal RIA) ([1]; thirty minutes after subcutaneous GLP-1, diabetic patients (n=8)): 88.5+1.9%
- metabolite share of the increase in plasma immunoreactivity (COOH-terminal RIA) ([1]; thirty minutes after subcutaneous GLP-1, healthy subjects (n=8)): 78.4+3.2%
